Experimental data from patent publication US8192962B2, “Processes for detecting toxic substances” (Daikin Industries, Ltd., priority 2001, dated 2012).

Test system: Metabolism protein genes
Assay: DNA chip mRNA expression in yeast, metabolism protein genes (Table 7)
Type: cell-based, Saccharomyces cerevisiae S288C
Method: Yeast (Saccharomyces cerevisiae S288C (α SUC2mal mel gap2 CUP1)) were incubated at 25° C. on YPD medium (yeast extract 1%, polypepton 2%, glucose 2%). One of toxic chemical substances was added to the cells at logarithmic growth phase, and the cells were further incubated for two hours. Cells were cultured without any chemical substance in the same condition, and were used as control. Concentrations of the chemical substances were defined to inhibit the growth of the yeast but not lead to death.
After completion of the incubation, the culture was centrifuged to collect the cells. To the cells, sodium acetate buffer (50 mM sodium acetate, 10 mM EDTA, 1% SDS) was added, and the mixture was shaken at 65° C. for five minutes, followed by returning to room temperature, and obtaining the supernatant, of which the procedures were repeated two times. To the supernatant, ½ amount of a solution of phenol/chloroform was added, and the mixture was centrifuged to give a supernatant, which was added with an equal amount of chloroform, and the mixture was centrifuged to give a supernatant. To the supernatant, an equal amount of isopropanol containing 0.3 M sodium acetate was added, and the mixture was allowed to stand at room temperature for 30 minutes, after which the mixture was centrifuged to give a sediment of the whole RNAs. Seventy % ethanol was added to the sediment, and the mixture was again centrifuged to give a sediment, which was then dried and dissolved in water. mRNA was isolated from the whole RNAs as followings. In view of the fact that a poly A chain is attached to the 3′ terminus of mRNA, a polynucleotide having a poly T structure which was immobilized on the surface of latex beads was used to trap the mRNA, and then the mRNA was washed and eluted with spine column (Oligotex-dT30<Super>mRNA Purification Kit, Takara). Reverse transcription of the mRNA was conducted with a reverse transcriptase (Super Script II Reverse Transcriptase; catalogue No. 18064-014, GibcoBRL) using fluorescence-labeled nucleotides to give cDNAs that were introduced with Cy3-dUTP or Cy5-dUTP during the reverse transcription.
The labeled cDNAs were dissolved in TE buffer (10mM Tris-HCl/1 mM EDTA, pH8.0), and the solution was dropped on the DNA chip containing the whole genes of yeast (DNA Chip Research Inc. Japan) so that the cDNAs were hybridized on the DNA chip at 65° C. for over 12 hours. The fluoresces intensity of the DNA chip was read with a scanner, and the ratio relative to the fluorescence intensity resulting from the absence of chemical substance was estimated as the following, which is shown in Tables 1 to 9: […]

CCCCCCCCCCCCc1ccc(S(=O)(=O)[O-])cc1.[Na+] [(17), sodium dodecylbenzosulfonate] was tested, and the “The level of expressed mRNA in the presence of chemical substance/The level of expressed mRNA in the absence of chemical substance” value (yeast gene YAL012W) was 0.9, the “The level of expressed mRNA in the presence of chemical substance/The level of expressed mRNA in the absence of chemical substance” value (yeast gene YAL038W) was 1.0 and the “level of expressed mRNA in the presence/in the absence of chemical substance” value (yeast gene YBR003W) was 1.1. For the same compound, the “level of expressed mRNA in the presence/in the absence of chemical substance” value (yeast gene YBR011C) was 0.8, the “level of expressed mRNA in the presence/in the absence of chemical substance” value (yeast gene YBR020W) was 0.8 and the “The level of expressed mRNA in the presence of chemical substance/The level of expressed mRNA in the absence of chemical substance” value (yeast gene YBR023C) was 0.7. The “The level of expressed mRNA in the presence of chemical substance/The level of expressed mRNA in the absence of chemical substance” value (yeast gene YBR029C) was 0.6, the “The level of expressed mRNA in the presence of chemical substance/The level of expressed mRNA in the absence of chemical substance” value (yeast gene YBR183W) was 1.4 and the “The level of expressed mRNA in the presence of chemical substance/The level of expressed mRNA in the absence of chemical substance” value (yeast gene YBR222C) was 0.8. For the same compound, the “The level of expressed mRNA in the presence of chemical substance/The level of expressed mRNA in the absence of chemical substance” value (yeast gene YBR256C) was 2.6, the “The level of expressed mRNA in the presence of chemical substance/The level of expressed mRNA in the absence of chemical substance” value (yeast gene YCL009C) was 1.1 and the “The level of expressed mRNA in the presence of chemical substance/The level of expressed mRNA in the absence of chemical substance” value (yeast gene YCL064C) was 0.3. For the same compound, the “level of expressed mRNA in the presence/in the absence of chemical substance” value (yeast gene YCR010C) was 1.9, the “level of expressed mRNA in the presence/in the absence of chemical substance” value (yeast gene YCR034W) was 0.9 and the “The level of expressed mRNA in the presence of chemical substance/The level of expressed mRNA in the absence of chemical substance” value (yeast gene YCR048W) was 1.2. The “The level of expressed mRNA in the presence of chemical substance/The level of expressed mRNA in the absence of chemical substance” value (yeast gene YCR098C) was 1.7, the “The level of expressed mRNA in the presence of chemical substance/The level of expressed mRNA in the absence of chemical substance” value (yeast gene YDR019C) was 1.2 and the “level of expressed mRNA in the presence/in the absence of chemical substance” value (yeast gene YDR050C) was 1.1. The “level of expressed mRNA in the presence/in the absence of chemical substance” value (yeast gene YDR073W) was 1.8, the “level of expressed mRNA in the presence/in the absence of chemical substance” value (yeast gene YDR123C) was 1.3 and the “level of expressed mRNA in the presence/in the absence of chemical substance” value (yeast gene YDR178W) was 1.2. The “level of expressed mRNA in the presence/in the absence of chemical substance” value (yeast gene YDR277C) was 1.2, the “level of expressed mRNA in the presence/in the absence of chemical substance” value (yeast gene YDR284C) was 1.5 and the “level of expressed mRNA in the presence/in the absence of chemical substance” value (yeast gene YDR345C) was 1.3. The “The level of expressed mRNA in the presence of chemical substance/The level of expressed mRNA in the absence of chemical substance” value (yeast gene YDR380W) was 0.8, the “level of expressed mRNA in the presence/in the absence of chemical substance” value (yeast gene YDR400W) was 1.1 and the “level of expressed mRNA in the presence/in the absence of chemical substance” value (yeast gene YDR408C) was 1.1. For the same compound, the “level of expressed mRNA in the presence/in the absence of chemical substance” value (yeast gene YDR483W) was 1.2, the “The level of expressed mRNA in the presence of chemical substance/The level of expressed mRNA in the absence of chemical substance” value (yeast gene YDR497C) was 1.6 and the “The level of expressed mRNA in the presence of chemical substance/The level of expressed mRNA in the absence of chemical substance” value (yeast gene YDR502C) was 0.9. For the same compound, the “The level of expressed mRNA in the presence of chemical substance/The level of expressed mRNA in the absence of chemical substance” value (yeast gene YDR516C) was 1.1, the “level of expressed mRNA in the presence/in the absence of chemical substance” value (yeast gene YEL063C) was 0.7 and the “level of expressed mRNA in the presence/in the absence of chemical substance” value (yeast gene YER015W) was 1.6. The “The level of expressed mRNA in the presence of chemical substance/The level of expressed mRNA in the absence of chemical substance” value (yeast gene YER026C) was 1.7, the “The level of expressed mRNA in the presence of chemical substance/The level of expressed mRNA in the absence of chemical substance” value (yeast gene YER053C) was 1.2 and the “The level of expressed mRNA in the presence of chemical substance/The level of expressed mRNA in the absence of chemical substance” value (yeast gene YER069W) was 1.1. For the same compound, the “level of expressed mRNA in the presence/in the absence of chemical substance” value (yeast gene YER081W) was 1.1, the “The level of expressed mRNA in the presence of chemical substance/The level of expressed mRNA in the absence of chemical substance” value (yeast gene YER096W) was 1.0 and the “level of expressed mRNA in the presence/in the absence of chemical substance” value (yeast gene YER120W) was 1.2. For the same compound, the “The level of expressed mRNA in the presence of chemical substance/The level of expressed mRNA in the absence of chemical substance” value (yeast gene YER178W) was 1.1, the “level of expressed mRNA in the presence/in the absence of chemical substance” value (yeast gene YFL011W) was 0.8 and the “The level of expressed mRNA in the presence of chemical substance/The level of expressed mRNA in the absence of chemical substance” value (yeast gene YFL014W) was 1.5. For the same compound, the “The level of expressed mRNA in the presence of chemical substance/The level of expressed mRNA in the absence of chemical substance” value (yeast gene YFL030W) was 1.0, the “The level of expressed mRNA in the presence of chemical substance/The level of expressed mRNA in the absence of chemical substance” value (yeast gene YFL031W) was 1.2 and the “The level of expressed mRNA in the presence of chemical substance/The level of expressed mRNA in the absence of chemical substance” value (yeast gene YFL056C) was 1.0.
